What was measured:
[1] = target: Galectin 1 and integrin aBV6 (Homo sapiens, UniProt P09382); assay: ELISA format with pairs of galectins and integrins; assay type: biochemical; conditions: FIG. 15
[2] = target: Gal-3/integrins (αVβ3, αVβ6, αMβ2) (Homo sapiens, UniProt P17931); assay: gal-3/integrin interaction ELISA assay; assay type: biochemical; conditions: compared with TD-139 (G240); FIG. 10, 11A-11C
Description: (§1) Experiments have been performed to evaluate the physical interaction of galectin proteins with these various biological ligands mediating cellular functions.

Galectin-3 [3] = target: T1, Galectin-3 (Homo sapiens, UniProt P17931); assay: Fluorescent polarization assay with fluorescent ligand; assay type: binding; conditions: for inhibition of Galectin-3 CRD specific fluorescent-ligand: Fluorescent polarization, inhibition curves
Target sequence in this assay (P17931 whole entry): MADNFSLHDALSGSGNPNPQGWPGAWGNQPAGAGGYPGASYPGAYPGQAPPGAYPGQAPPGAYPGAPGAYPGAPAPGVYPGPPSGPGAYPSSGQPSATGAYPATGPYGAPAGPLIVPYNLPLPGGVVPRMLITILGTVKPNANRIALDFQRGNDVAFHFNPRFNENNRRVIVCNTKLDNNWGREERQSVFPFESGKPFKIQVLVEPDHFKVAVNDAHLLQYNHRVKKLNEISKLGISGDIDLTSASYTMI

HTB-38 cells = assay: Cell culture viability, HTB-38; assay type: cell-based; conditions: HTB-38, exposed over 3 days in standard growth media
Method: Procedure for HTB-38 Cells ([…]) was as follow:
1. HTB-38 cells were resuspended in culture media containing 8 ng/ml h-IFN-gamma, 4× Pen/Strep and 10% Fetal Bovine Serum (Gibco lot# 1260930). 2. Cells were transferred at 100μl/well in assay plate (4,000-10,000 cells/well, passage# 4-30). 3. Tested compound was diluted serially in assay media as above, usually in range of 100 μg/ml to 20 ng/mL 4. 100 μl/well serial diluted compound was added in duplicate to cells. Final volume of each well was 200 μl, containing 4 ng/ml h-IFN-gamma, 2× Pen/Strep, 5. Cells were Incubate 60-90 hours at 37° C. 6. 20 μl of Promega Substrate [CellTiter 96 Aqueous One Solution] Reagent was added to each well. 7. Cells were incubated at 37° C. for 4-8 hrs and read OD at 490 nm.
(§2) Cells were exposed to the G-625 over 3 days in standard growth media.

Galectin-3 [4] = target: T1, Galectin-3; assay: ELISA of Galectin-3 binding inhibition (anti-Galectin-3 antibodies)
Description: as §1
Target sequence in this assay (P17931 whole entry): as above

MCP-1 = assay: In-vitro inflammatory model, MCP-1 in endotoxin stressed THP-1 monocytes; assay type: cell-based; conditions: THP-1 stimulated with endotoxin for 5 days
Method: A model of macrophage polarization was set up, starting from THP-1 monocytes culture which is differentiated into inflammatory macrophages using PMA (Phorbol 12-myristate 13-acetate) for 2-4 days. Once differentiated (MO macrophages), the macrophages were induced with LPS or LPS and IFN-gamma for macrophage activation (M1) to inflammatory stage for 1-3 days. Array of cytokines and chemokines were analyzed to confirm the polarization of THP-1-derived macrophages to inflammatory stage. The impact of the anti-galectin 3 compounds on macrophage polarization was assessed first by monitoring cell viability using a colorimetric method (using a tetrazolium reagent) to determine the number of viable cells in proliferation or cytotoxicity assays (Promega, The CellTiter 96® AQueous One Solution Cell Proliferation Assay which contains a novel tetrazolium compound [3-(4,5-[…])-5-(3-carboxymethoxyphenyl)-2-(4-sulfophenyl)-2H-tetrazolium, inner salt; MTS] and an electron coupling reagent (phenazine ethosulfate; PES)) and inflammatory stage evaluated by a quantitatively measure of the chemokine Monocyte Chemoattractant Protein-1 (MCP-1/CCL2), a key protein that regulates migration and infiltration of monocytes/macrophages in cellular process of inflammation. Follow-up testing for the expression and secretion of other cytokines and chemokines were done for leading active compounds. […]

MCF-7 cells = assay: Cell culture viability, MCF-7; assay type: cell-based; conditions: MCF-7, exposed over 3 days in standard growth media
Method: Procedure for MCF-7 Cells ([…]) was as follow:
1. MCF-7 cells were resuspended in culture media containing 4× Pen/Strep and 0.25% Fetal Bovine Serum (Gibco lot# 1202161). 2. 100 ul media was added with approximately 4,000-10,000 cells/well, passage # 5 up to 30) and cells were incubated for at least 24 hrs at 37° C. 3. Tested compound was diluted serially in assay media as above, usually at a range of 100 μg/ml to 20 ng/mL 4. […] serial diluted compound was added in duplicate to cells in assay plate. Final volume of each well was […], (containing 2× Pen/Strep, 0.25% FBS and compound as indicated 5. Cells were incubated 60-80 hours at 37° C. 6. […] of Promega Substrate [CellTiter 96 Aqueous One Solution] Reagent was added to each well. 7. Cells were incubated 37° C. for 4-8 hrs and read OD at 490 nm.
as §2

Galectin-3 [5] = assay: Galectin-3 expression in TGFb1 stimulated LX-2 stellate cells, flow cytometry; assay type: cell-based; conditions: TGFb1, 5 days serum starved stimulated LX-2 cells
Description: TGFb1 stimulates hepatic stellate cells into the fibrogenesis pathway leading to secretion of collagen and other fibrosis biomarkers. […] While it is known that lactose has binding affinity to Gal-3, galactose lacks this affinity. […] The result confirmed this hypothesis.

[6] = target: Galectin-9 and integrin aMB2 (Homo sapiens, UniProt O00182); assay: ELISA format with pairs of galectins and integrins; assay type: biochemical; conditions: FIG. 15
[7] = target: gal-3 with Integrin (aMB2) (Homo sapiens, UniProt P17931); assay: gal-3/integrin interaction ELISA, Integrin (aMB2); assay type: biochemical; conditions: FIG. 11D and 11E
Galectin-3 [8] = target: T1, Galectin-3; conditions: cited from earlier work
Target sequence in this assay (P17931 whole entry, species assumed): as the sequence (P17931 whole entry) above

[9] = pulmonary administration; cited from earlier work

Chain of gal-3 with Integrin (aMB2) (P17931 whole entry): as above
Chain of Galectin-9 and integrin aMB2 (O00182 whole entry, species assumed): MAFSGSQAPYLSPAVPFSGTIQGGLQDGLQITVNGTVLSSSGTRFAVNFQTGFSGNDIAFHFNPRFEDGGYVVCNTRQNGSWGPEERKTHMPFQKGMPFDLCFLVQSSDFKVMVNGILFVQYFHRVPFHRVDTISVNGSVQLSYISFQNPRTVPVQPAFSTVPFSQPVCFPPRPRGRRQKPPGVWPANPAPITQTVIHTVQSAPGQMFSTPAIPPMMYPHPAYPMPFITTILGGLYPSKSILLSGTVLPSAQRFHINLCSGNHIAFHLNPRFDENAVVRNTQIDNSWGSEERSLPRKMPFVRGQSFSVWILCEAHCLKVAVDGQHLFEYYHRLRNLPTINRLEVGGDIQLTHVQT
Chain of Galectin 1 and integrin aBV6 (P09382 whole entry, species assumed): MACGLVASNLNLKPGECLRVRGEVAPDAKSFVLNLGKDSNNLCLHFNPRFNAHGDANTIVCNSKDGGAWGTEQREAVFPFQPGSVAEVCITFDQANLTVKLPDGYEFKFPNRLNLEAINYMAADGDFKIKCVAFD
Chain of Gal-3/integrins (αVβ3, αVβ6, αMβ2) (P17931 2-250 limits assumed): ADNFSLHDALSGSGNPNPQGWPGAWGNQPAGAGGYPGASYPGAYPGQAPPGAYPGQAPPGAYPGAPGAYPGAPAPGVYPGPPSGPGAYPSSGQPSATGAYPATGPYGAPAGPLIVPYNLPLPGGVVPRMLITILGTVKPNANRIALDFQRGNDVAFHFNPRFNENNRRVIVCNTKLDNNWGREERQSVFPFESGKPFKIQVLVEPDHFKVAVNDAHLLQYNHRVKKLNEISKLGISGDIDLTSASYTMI

Which “inhibition of interaction between Galectin 1 and integrin aBV6” value [1] does the source give for `OC[C@H]1O[C@@H]([Se][C@@H]2O[C@H](CO)[C@H](O)[C@H](n3cc(-c4cccc(F)c4)nn3)[C@H]2O)[C@H](O)[C@@H](n2cc(-c3cccc(F)c3)nn2)[C@H]1O` [G-625, beta-D-Galactopyranoside, 3-deoxy-3-(4-(3-fluorophenyl)-1H-1,2,3-triazol-1-yl)-beta-D-galactopyranosyl 3-deoxy-3-(4-(3-fluorophenyl)-1H-1,2,3-triazol-1-yl)-1-seleno-] here?
Its value is “significantly inhibited”.

What about the “inhibition of Gal-3/integrins” value [2] of the same compound?
Its value is “more potent inhibitor of Gal-3/integrins than TD-139 (G240)”.

And the IC50 (Galectin-3 [3])?
The IC50 was 259 nM.

And the “inhibition of Galectin-3 CRD specific fluorescent-ligand” value (Galectin-3 [3])?
The value was “twice better inhibitor then G-240 (TD-139)”.

And the “cytotoxicity (cell culture viability)” value (HTB-38 cells)?
The value was “no cytotoxicity”.

What about the IC50 (Galectin-3 [4]) of the same compound?
Its IC50 is 14.4 nM.

And the “secretion of MCP-1” value (MCP-1)?
The value was “inhibitory effect on the inflammatory stage by reducing the secretion of MCP-1”.

And the “cytotoxicity (cell culture viability)” value (MCF-7 cells)?
Its value is “no cytotoxicity”.

And the galectin-3 expression (Galectin-3 [5])?
The galectin-3 expression was “enhanced activity of G-625 versus G-240”.

What about the galectin-3 expression (Galectin-3 [5]; listed as G625) of the same compound?
Its galectin-3 expression is “inhibition of galectin-3 expression”.

What about the “inhibition of interaction between Galectin-9 and integrin aMB2” value [6] of the same compound?
Its value is “significantly inhibited”.

Which results are given for `O=C(C[Se][C@@H]1O[C@H](CO)[C@H](O)[C@H](n2cc(-c3cccc(F)c3)nn2)[C@H]1O)c1ccc(F)c(F)c1` [G-662]?
inhibition of Galectin-3 CRD specific fluorescent-ligand (Galectin-3 [3]): shown to inhibit the Gal-3 binding; inhibition of the interaction of gal-3 with integrin [7]: significantly inhibit

Which galectin-3 expression (Galectin-3 [5]) does the source give for `OC[C@H]1O[C@@H](O[C@H]2[C@H](O)[C@@H](O)C(O)O[C@@H]2CO)[C@H](O)[C@@H](O)[C@H]1O` (stereo partly shown) [Lactose, reference compound] here?
Its galectin-3 expression is “would have effect (at relatively high concentrations)”.

For `OCC1OC([Se][Se]C2OC(CO)C(O)C(n3cc(-c4cccc(F)c4)nn3)C2O)C(O)C(n2cc(-c3cccc(F)c3)nn2)C1O` (stereo not shown) [G-626], which IC50 (Galectin-3 [3]) is on record?
Its IC50 is 5290 nM.

And the “inhibition of Galectin-3 CRD specific fluorescent-ligand” value (Galectin-3 [3])?
The value was “showed an inhibitory activity”.

And the IC50 (Galectin-3 [4])?
Its IC50 is 1160 nM.

What about the “secretion of MCP-1” value (MCP-1) of the same compound?
Its value is “inhibitory effect on the inflammatory stage by reducing the secretion of MCP-1”.

Which results are given for `OC[C@H]1O[C@@H](S[C@@H]2O[C@H](CO)[C@H](O)[C@H](n3cc(-c4cccc(F)c4)nn3)[C@H]2O)[C@H](O)[C@@H](n2cc(-c3cccc(F)c3)nn2)[C@H]1O` [TD-139, beta-D-Galactopyranoside, 3-deoxy-3-(4-(3-fluorophenyl)-1H-1,2,3-triazol-1-yl)-beta-D-galactopyranosyl 3-deoxy-3-(4-(3-fluorophenyl)-1H-1,2,3-triazol-1-yl)-1-thio-]?
binding to galectin 3 (Galectin-3 [8]): reported to bind to galectin 3; efficacy in mouse model of lung fibrosis [9]: effective

Which galectin-3 expression (Galectin-3 [5]) does the source give for `O=C[C@H](O)[C@@H](O)[C@@H](O)[C@H](O)CO` [Galactose, reference compound] here?
Its galectin-3 expression is “should not have any effect”.

Which “inhibition of the interaction of gal-3 with integrin” value [7] does the source give for `OC[C@H]1O[C@@H]([Se]Cc2ccc(F)c(F)c2)[C@H](O)[C@@H](n2cc(-c3cccc(F)c3)nn2)[C@H]1O` [G-656] here?
The value was “significantly inhibit”.

Reference: patent US20230127345A1, “SELENOGALACTOSIDE COMPOUNDS FOR THE PREVENTION AND TREATMENT OF DISEASES ASSOCIATED WITH GALECTIN AND THE USE THEREOF” (GALECTIN SCIENCES, LLC, priority 2016, published 2023)
